Consider 37 molecules from patent US12240828B2, “Heteroaromatic compounds as vanin inhibitors” (Boehringer Ingelheim International GmbH, priority 2018, dated 2025).

In the first test the target is T1, FLAG-tagged Vanin-1 (AA 22-493, T26I) (Homo sapiens, UniProt O95497, T26I).
T1 construct: FLAG-tagged Vanin-1 (AA 22-493, T26I, produced internally); FLAG; made in house
T1 sequence (O95497 22-493 T26I): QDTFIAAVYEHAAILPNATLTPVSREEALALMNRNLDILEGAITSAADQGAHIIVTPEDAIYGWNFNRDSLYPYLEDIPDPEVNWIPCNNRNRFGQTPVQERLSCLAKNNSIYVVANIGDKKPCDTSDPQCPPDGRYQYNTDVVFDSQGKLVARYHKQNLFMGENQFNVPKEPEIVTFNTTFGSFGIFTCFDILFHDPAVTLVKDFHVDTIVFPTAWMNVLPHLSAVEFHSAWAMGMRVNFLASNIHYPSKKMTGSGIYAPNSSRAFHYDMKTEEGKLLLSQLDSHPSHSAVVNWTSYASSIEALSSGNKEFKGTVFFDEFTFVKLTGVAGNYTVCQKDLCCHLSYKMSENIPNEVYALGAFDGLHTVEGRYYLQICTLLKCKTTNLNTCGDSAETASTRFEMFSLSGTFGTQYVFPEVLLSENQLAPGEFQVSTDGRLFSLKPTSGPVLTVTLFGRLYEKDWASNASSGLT
Briefly: Vanin-1 enzymatic assay. Format: biochemical. The conditions noted are these: 0.1 nM Vanin-1, 3 μM D-pantethine, pantothenic acid formation by RapidFire MS; geometric mean if multiple measurements; read-out: VNN-1 IC50. Here is the method:
The test compounds are dissolved in 100% DMSO at a concentration of 10 mM and in a first step diluted in DMSO to a concentration of 5 mM, followed by serial dilution steps in 100% DMSO. Dilution factor and number of dilution steps may vary according to needs. Typically 8 different concentrations by 1:5 dilutions are prepared, a further intermediate dilutions of the substances is carried out with assay buffer resulting in 1% final DMSO concentration in the assay.
0.1 nM of FLAG-tagged Vanin-1 (AA 22-493, T26I, produced internally) and test compounds are incubated at room temperature for 20 minutes in assay buffer (1 mM DTT, 0.0025% Brij-35, 50 mM HEPES, pH7.5). D-Pantethine (Sigma, Cat #P2125-5G) in assay buffer is added (final concentration 3 μM) and incubated for additional 30 minutes at room temperature. Total assay volume typically is 40 μl but might be adjusted according to needs. Reaction is stopped by adding equal volume of stop solution as the reaction mixture to reach 100 nM HD-pantothenic acid (as an internal standard) and 1% TFA. Assay plates are centrifuged for 2 minutes and the formation of pantothenic acid is detected by RapidFire Mass Spectrometry (mobile phase A: 0.1% formic acid and 0.01% trifluoroacetic acid in water; mobile phase B: 47.5% acetonitrile, 47.5% methanol, 0.1% formic acid and 0.01% trifluoroacetic acid in water) using a C18, 12 μL cartridge (Agilent Cat #G9205A).
The values given in Table I result from measurements of one or more samples. In case of multiple measurements the geometric mean values are given.
As for `CC(=O)N(C)[C@H]1CCN(C(=O)c2ccc(NC(C)c3nccs3)nc2)C1` (single isomer, unassigned) [Example 5.1.A], the half-maximal inhibitory concentration (IC50) is 90 pM.
For the molecule `CC(=O)N(C)[C@H]1CCN(C(=O)c2ccc(NC(C)c3nccs3)nc2)C1` (single isomer, unassigned) [Example 5.1.B], the half-maximal inhibitory concentration (IC50) turned out to be 940 pM.
The same measure, in the same setting: to `CC(=O)N(C)[C@H]1CCN(C(=O)c2ccc(NC(C)c3cccnc3)nc2)C1` (single isomer, unassigned) [Example 6.1.A] belongs 90 pM; to `CC(=O)N(C)[C@H]1CCN(C(=O)c2ccc(NC(C)c3cccnc3)nc2)C1` (single isomer, unassigned) [Example 6.1.B], 1430 pM; to `CC(=O)N(C)[C@H]1CCN(C(=O)c2ccc(NC3CCc4ncccc43)nc2)C1` (single isomer, unassigned) [Example 8.8], 190 pM.
As to `CC(=O)N(C)[C@H]1CCN(C(=O)c2ccc(NC3CCc4ncccc43)nc2)C1` (single isomer, unassigned) [Example 8.14], the concentration for half-maximal inhibition (IC50) was determined as 8560 pM.
Same read-out and setting: the same measure for `CC(=O)N(C)[C@H]1CCN(C(=O)c2ccc(NCc3cccc(C#N)c3)nc2)C1` [Example 1.1, N-[(3S)-1-(6-{[(3-Cyanophenyl)methyl]amino}pyridine-3-carbonyl)pyrrolidin-3-yl]-N-methylacetamide]: 1270 pM; for `CC(=O)N(C)[C@H]1CCN(C(=O)c2ccc(N[C@@H](C)c3ccccc3)nc2)C1` [Example 1.2]: 200 pM.
Still for that read-out and setting: the same measure for `CN(C(=O)C1(C)CCC1)[C@H]1CCN(C(=O)c2ccc(NCc3cccnc3Cl)nc2)C1` [Example 1.7]: 120 pM; for `CN(C(=O)C1CC1)[C@H]1CCN(C(=O)c2ccc(NCc3ccc(Cl)nc3)nc2)C1` [Example 1.13]: 170 pM; for `CNC(=O)c1cccc([C@H](C)Nc2ccc(C(=O)N3CC[C@H](N(C)C(C)=O)C3)cn2)c1` [Example 1.25]: 270 pM.
Take `CN(C(=O)C1(C)CCC1)[C@H]1CCN(C(=O)c2ccc(NCc3ccc(Cl)nc3)nc2)C1` [Example 1.28]: the IC50 was determined as 320 pM.
Turning to `COC(=O)c1cccc(C(C)Nc2ccc(C(=O)N3CC[C@H](N(C)C(C)=O)C3)cn2)c1` (stereo partly shown) [Example 1.29], the IC50 turned out to be 340 pM.
On the same count and under the same terms, to `CC(=O)N(C)[C@H]1CCN(C(=O)c2ccc(NCc3ccc(N)nc3)nc2)C1` [Example 1.34] belongs 470 pM; to `CC(=O)N(C)[C@H]1CCN(C(=O)c2ccc(NC3CCc4[nH]ncc43)nc2)C1` (stereo partly shown) [Example 1.35], 530 pM.
As for `CC(=O)Nc1cccc(C(C)Nc2ccc(C(=O)N3CC[C@H](N(C)C(C)=O)C3)cn2)c1` (stereo partly shown) [Example 1.36], the IC50 worked out at 540 pM.
The same measure, in the same setting: to `CN(C(=O)C1(C)CCC1)[C@H]1CCN(C(=O)c2ccc(NCc3cnccc3C(F)(F)F)nc2)C1` [Example 1.39] belongs 660 pM; to `CC(=O)N(C)[C@H]1CCN(C(=O)c2ccc(NCc3cncc(Br)c3)nc2)C1` [Example 1.41], 770 pM; to `CC(=O)N(C)[C@H]1CCN(C(=O)c2ccc(N[C@@H](C)c3cccc(S(=O)(=O)N(C)C)c3)nc2)C1` [Example 1.45], 940 pM.
On the same count and under the same terms, to `CN(C)c1ccc(CNc2ccc(C(=O)N3CC[C@H](N(C)C(=O)C4(C)CCC4)C3)cn2)cn1` [Example 1.46] belongs 960 pM.
The same measure, in the same setting: the same measure for `CC(=O)N(C)[C@H]1CCN(C(=O)c2ccc(NCc3cccc(-c4nc(CC(F)(F)F)no4)c3)nc2)C1` [Example 1.48]: 980 pM; for `CC(=O)N(C)[C@H]1CCN(C(=O)c2ccc(NCc3cccnn3)nc2)C1` [Example 1.49]: 1040 pM.
For `CC(=O)N(C)[C@H]1CCN(C(=O)c2ccc(NCc3ccccn3)nc2)C1` [Example 1.56], the half-maximal inhibitory concentration (IC50) stood at 1650 pM.
Still for that read-out and setting: the same measure for `CC[C@H](Nc1ccc(C(=O)N2CC[C@H](N(C)C(C)=O)C2)cn1)c1ccc(C(F)F)cc1` [Example 1.62]: 2360 pM.
On the same count and under the same terms, to `C[C@H](Nc1ccc(C(=O)N2CC[C@H](N(C)C(=O)C3(C)CCC3)C2)cn1)c1cnccn1` [Example 1.76] belongs 4330 pM; to `CC(=O)N(C)[C@H]1CCN(C(=O)c2ccc(NC3CCCc4cn[nH]c43)nc2)C1` (stereo partly shown) [Example 1.81], 6990 pM; to `CC(=O)N(C)[C@H]1CCN(C(=O)c2ccc(NCc3ccncc3)nc2)C1` [Example 1.87], 8450 pM.
Same read-out and setting: to `CC(=O)N(C)[C@H]1CCN(C(=O)c2ccc(NCc3cc(CC(C)C)n[nH]3)nc2)C1` [Example 1.88] belongs 8830 pM; to `CC(=O)N(C)[C@H]1CCN(C(=O)c2ccc(NCc3ccnn3C)nc2)C1` [Example 1.90], 9370 pM.
As for `CN(C(=O)C1CC(F)(F)C1)[C@H]1CCN(C(=O)c2ccc(NC(C)(C)c3ccccc3)nc2)C1` [Example 2.3], the IC50 was 90 pM.
For `CC(=O)N(C)[C@H]1CCN(C(=O)c2ccc(NC3(c4ccccc4)CCC3)nc2)C1` [Example 4.6], the IC50 turned out to be 210 pM.
Same read-out and setting: to `CN(C(=O)C1(C)CCC1)[C@H]1CCN(C(=O)c2ccc(NC(C)(C)c3cccnc3)nc2)C1` [Example 8.1, N,1-Dimethyl-N-[(3S)-1-(6-{[2-(pyridin-3-yl)propan-2-yl]amino}pyridine-3-carbonyl)pyrrolidin-3-yl]cyclobutane-1-carboxamide] belongs 110 pM.
On the same count and under the same terms, the same measure for `O=C(N[C@H]1CCN(C(=O)c2ccc(NC3(c4cncnc4)CC3)nc2)C1)C1CC1` [Example 8.13]: 4280 pM; for `CC(=O)N(C)[C@H]1CCN(C(=O)c2ccc(NC3(c4ccc(Cl)cc4)CCC3)nc2)C1` [Example 9.2]: 150 pM.
On the same count and under the same terms, the same measure for `CC(=O)N(C)[C@H]1CCN(C(=O)c2ccc(NC(C)c3ccccc3)nc2)C1` (stereo partly shown) [Example 9.7]: 720 pM; for `CC(=O)N(C)[C@H]1CCN(C(=O)c2ccc(NC(C)c3cccc(C(N)=O)c3)nc2)C1` (stereo partly drawn) [Example 10.1, 3-[1-({5-[(3S)-3-(N-Methylacetamido)pyrrolidine-1-carbonyl]pyridin-2-yl}amino)ethyl]benzamide]: 350 pM; for `CC(=O)N(C)[C@H]1CCN(C(=O)c2ccc(N[C@@H](C)c3ccc(C#N)nc3)nc2)C1` [Example 11.1, N-[(3S)-1-(6-{[(1S)-1-(6-cyanopyridin-3-yl)ethyl]amino}pyridine-3-carbonyl)pyrrolidin-3-yl]-N-methylacetamide]: 740 pM.

The next test deals with Pantetheinase (vanin). Put plainly: Human Whole Blood assay. It counts as cell-based. To be noted: pantethine substrate, pantothenic acid formation by RapidFire MS, read-out: HWB IC50. How it is done:
Human Whole Blood assay: Pantetheinase (vanin) converts panteheine into pantothenic acid and cysteamine. Accordingly, in the described protocol vanin activity is quantified by formation of pantothenic acid after pantetheine supplementation via pantethine. The assay is applicable to identify vanin inhibitors. Compound stocks are dissolved in DMSO at 10 mM. Further dilutions are performed in RPMI 1640 medium (Gibco, #A-10491-01) and final concentrations in the assay are 0.032 nM-500 nM.
Human blood is drawn into a blood bag (1% heparin, 50 I.E./mL). Blood is aliquoted into cavities of 96-deep-well plates at 290 μL and mixed with 10 μL compound solution or vehicle (30 sec at 1400 rpm on a shaker). Equilibration follows at room temperature, 250 rpm and for 30 min. The assay is starts by adding 10 μL of substrate solution (20 μM pantethine in 1 mM DTT, 0.0025% Brij-35, 50 mM HEPES, pH7.5) to each well, except for some blank wells which receive […] substrate buffer (1 mM DTT, 0.0025% Brij-35, 50 mM HEPES, pH7.5) only. Samples are thoroughly shaken (30 sec, 1400 rpm) and reaction is allowed to take place at room temperature, 250 rpm and for 5 min. The reaction is stopped by addition of a vanin tool inhibitor in excess (BI-1 total conc. 10 μM). Centrifugation of the plate follows at 4° C., 665 G for 10 min. Then the blood plasma samples (100 μL) are transferred into another 96-deep-well plate and proteins are precipitated (5 min on ice) by adding 100 μL of ice cold precipitation solution (1 μM labelled pantothenic acid (di-β-alanine-13C6,15N2 calcium salt, Sigma, #705837) in acetonitrile). Afterwards the plate is centrifuged (4° C., 3220 G, 10 min) and supernatants (50 μL) are collected into another 96-deep-well plate and mixed (10 sec, 1400 rpm) with 150 μL ice cold formic acid (0.1%, Carl Roth GmbH+Co.KG, #CP03.1). The formation of pantothenic acid is detected by RapidFire Mass Spectrometry. A TripleQuad 6500+ (ABSciex, Germany) is equipped with an LC-1290 system, a RapidFire autosampler (Agilent, Germany) and a C18 cartridge Type C 12 μL (Agilent Cat #G9526-80000). Mobile phase A is consisting of 0.09% formic acid and 0.01% trifluoroacetic acid in water and mobile phase B of 0.09% formic acid and 0.01% trifluoroacetic acid in acetonitrile/methanol/water=47.5/47.5/5.
In the case of `CC(=O)N(C)[C@H]1CCN(C(=O)c2ccc(NC(C)c3nccs3)nc2)C1` (single isomer, unassigned) [Example 5.1.A], the half-maximal inhibitory concentration (IC50) was 1820 pM.
The same measure, in the same setting: to `CC(=O)N(C)[C@H]1CCN(C(=O)c2ccc(NC(C)c3cccnc3)nc2)C1` (single isomer, unassigned) [Example 6.1.A] belongs 2590 pM.
The same measure, in the same setting: to `CC(=O)N(C)[C@H]1CCN(C(=O)c2ccc(NC3CCc4ncccc43)nc2)C1` (single isomer, unassigned) [Example 8.8] belongs 1950 pM; to `CC(=O)N(C)[C@H]1CCN(C(=O)c2ccc(NC3CCc4ncccc43)nc2)C1` (single isomer, unassigned) [Example 8.14], 76400 pM; to `CC(=O)N(C)[C@H]1CCN(C(=O)c2ccc(NCc3cccc(C#N)c3)nc2)C1` [Example 1.1, N-[(3S)-1-(6-{[(3-Cyanophenyl)methyl]amino}pyridine-3-carbonyl)pyrrolidin-3-yl]-N-methylacetamide], 5040 pM.
Still for that read-out and setting: to `CC(=O)N(C)[C@H]1CCN(C(=O)c2ccc(N[C@@H](C)c3ccccc3)nc2)C1` [Example 1.2] belongs 4510 pM.

By IC50 is commonly meant the midpoint of a concentration-inhibition curve.
